Where two headings read alike, the source gives them in different places.
Legend:
Haemonchus contortus = assay: Percent of Haemonchus destroyed or expelled in infected sheep (egg count after treatment); assay type: in vivo, Haemonchus contortus (in sheep); conditions: for inhibition in vivo at 15 mg/kg / inhibition in vivo at 5 mg/kg / inhibition in vivo at 2 mg/kg: Haemonchus contortus; for Effectiveness at 15 mg/kg against Haemonchus: Table VI
Experimental: Two groups of sheep were used in the tests. One group was used as a non-medicated control, while the other group was treated with the compound under investigation. Helminth-free young lambs were infected with about 10,000 filariform larvae of Haemonchus contortus. In three weeks when the infection became apparent, egg counts were made to determine the density of the worm burden.
The egg count was carried out using the following modified Stoll method. Three grams of sheep feces were taken rectally from each animal and placed in a Stoll flask. To each flask, tap water was added to the top line. The fecal pellets were too hard to break down, the flasks were closed with rubber stoppers and kept in the refrigerator for several hours. The flasks were thoroughly shaken and a 1 ml. sample was drawn from the middle using a wide mouth pipette. This 1 ml. sample was transferred to an 8 ml. plastic tube, to which enough saturated sodium chloride solution was added to reach the rim. The tubes were then centrifuged for 10 minutes at 1500 r.p.m. Then sodium chloride solution was added with a medicine dropper forming a concave miniscus. A cover glass was carefully added and the tubes were kept in a refrigerator for ten to twenty minutes. During that period, the nematode ova flowed upward and adhered to the bottom of the cover glass slip. At the end of the 20-minute period, the cover slip was carefully detached from the miniscus and transferred to a microscopic slide. The ova were then counted under a microscope equipped with 10X ocular and 10X objective lens. Each ovum under the microscope represented 20 ova in the sample.
Animals with sufficiently high egg counts were taken out of the pool and housed in experimental pens. Since the salicylanilides of the present invention are water insoluble, the compounds were first ground using a mortar and pestle and then were placed in a carboxymethyl cellulose solution. The particles were further micronized ultrasonically. The compound was then administered to two or three animals by Oesophageal gavage. Control, untreated animals, received only the carboxymethyl cellulose solution in a similar manner. On the sixth and seventh day after treatment, fecal pellets were taken from the rectum of the control as well as the treated animals and egg counts were made.
(§1) The results of tests on sheep in a manner described, supra, using compounds of the present invention are given in Table 1, Examples 5 through 13. The numbers in the column headed "Haemonchus (15 mg/kg)" refer to the percent of parasites destroyed or expelled when the indicated compound was introduced into the rumen of sheep at a dosage of 15 milligrams per kilogram of body weight. The values under "Tolerance (mg/kg)" refer to the highest test dosage in the milligrams of anthelmintic per kilogram of body weight at which the sheep developed no toxic symptoms. "Tol." is an abbreviation for "tolerated". The symbols R1 and R2 refer to those of Formula I in these and other following examples.
(§2) The data of the tables were generated using procedures previously described. The compounds tested are disubstituted and, except for Example 50 which is dibromo, are dichloro. Where the position for the substituents is other than 2' and 4', it is indicated. Under the indicated microorganisms, the values given in this and the following tables, should be read as: percentage of microorganism killed/dose in milligrams per kilogram of body weight. Under "Tolerance", the term "Tol." means "tolerated", "Tox." means "toxic", and "Sym." means "symptoms of toxic reaction", all at the dosage value which follows. It will be appreciated that there is no sharp toxicity end point in determining toxicity to living sheep.

Fasciola hepatica = assay: Test for activity against liver flukes, Fasciola hepatica, in infected sheep; assay type: in vivo
Experimental: Test for activity against liver flukes were conducted as follows:
Eggs of Fasciola hepatica were collected from the bile of donor sheep. The eggs were embryonated and snails were infected (the genus Lymnaea serves as intermediate host) to produce Metacercariae which are the infective forms for sheep. Each sheep was infected with 250 metacercariae intraruminally. When the infection became patent in ca. 80 days, egg counts were carried out to determine the degree of worm burden. The liver was processed to recover F. hepatica in the untreated and treated sheep.
as §2

sheep = assay: Tolerance / toxicity in sheep; assay type: in vivo; parameters: key to Tolerance at 100 mg/kg / Tolerance at 50 mg/kg: "toxic" refers to death of sheep resulting from the use of the indicated compound at the indicated dosage; key to Tolerance: Tol.: tolerated; Tox.: toxic; Sym.: symptoms of toxic reaction; conditions: for Tolerance at 50 mg/kg: Tables III and IV
Experimental: as §1
The importance of the 2',4' substitution on the anilide moiety of Formula I is illustrated by the case of the dichloro substitution as summarized in Table III. […] This has been mentioned briefly hereinabove. As used herein, "toxic" refers to death of sheep resulting from the use of the indicated compound at the indicated dosage.
as §2

[1] = test system: Haemonchus and Fasciola hepatica; assay: Dual activity against Haemonchus and Fasciola in sheep and therapeutic ratio; assay type: in vivo; conditions: sheep, 5 mg./kg.
[2] = iv, sheep, 15 mg/kg, Tables III and IV, read-out: Effectiveness (%) at 15 mg/kg
[3] = sheep, 5 mg/kg, Tables VIII-XI, read-out: Haemonchus, percentage of microorganism killed
[4] = sheep, 5 mg/kg, Tables III and IV
[5] = Fasciola hepatica, read-out: Fasciola hepatica, percentage of microorganism killed
[6] = Fasciola hepatica, sheep, Tables VIII-XI, read-out: Fasciola hepatica, percentage of microorganism killed
[7] = sheep, 15 mg/kg, Tables VIII-XI, read-out: Haemonchus, percentage of microorganism killed
[8] = Fasciola hepatica, sheep, 15 mg/kg, Tables VIII-XI, read-out: Fasciola hepatica, percentage of microorganism killed

Cc1c([N+](=O)[O-])cc(C(C)(C)C)c(O)c1C(=O)Nc1cc(Cl)ccc1Cl [Example 24, reference compound]
inhibition in vivo at 15 mg/kg (Haemonchus contortus; [2]): 100% | inhibition in vivo at 15 mg/kg (Haemonchus contortus; read-out: Haemonchus, percentage of microorganism killed, sheep, 15 mg/kg, Tables VIII-XI): 100% | inhibition in vivo at 5 mg/kg (Haemonchus contortus; [3]): 61% | activity at 5 mg./kg. (Haemonchus contortus; sheep, 5 mg/kg): 61% | Effectiveness (%) at 5 mg/kg (Haemonchus contortus; [4]): 61% | inhibition in vivo at 15 mg/kg (Fasciola hepatica; [5]): 100% | inhibition in vivo at 5 mg/kg (Fasciola hepatica; [6]): 0% | activity against Fasciola, in words (Fasciola hepatica; sheep): no activity | Tolerance (sheep; 50 mg./kg., Tables VIII-X): Tol. | toxic effects at 50 mg./kg. (sheep; 50 mg/kg): shows toxic effects | Tolerance at 50 mg/kg (sheep; 50 mg/kg): toxic | clinical effectiveness against either parasite, in words [1]: would not be clinically effective against either parasite

Cc1c([N+](=O)[O-])cc(C(C)(C)C)c(O)c1C(=O)Nc1ccc(Cl)c(Cl)c1 [Example 25]
inhibition in vivo at 15 mg/kg (Haemonchus contortus; [2]): 100% | inhibition in vivo at 5 mg/kg (Haemonchus contortus; [3]): 20% | inhibition in vivo at 15 mg/kg (Haemonchus contortus; [7]): 100% | Effectiveness (%) at 5 mg/kg (Haemonchus contortus; [4]): 20% | inhibition in vivo at 2 mg/kg (Fasciola hepatica; Fasciola hepatica, sheep, 2 mg/kg, Tables VIII-XI, read-out: Fasciola hepatica, percentage of microorganism killed): 0% | inhibition in vivo at 5 mg/kg (Fasciola hepatica; [6]): 95% | inhibition in vivo at 15 mg/kg (Fasciola hepatica; [8]): 100% | Tolerance (sheep; 15 mg./kg., Tables VIII, X): Tox. | Tolerance (sheep; 50 mg./kg., Tables VIII-X): Tox. | Tolerance at 50 mg/kg (sheep; 50 mg/kg): toxic

Cc1c([N+](=O)[O-])cc(C(C)(C)C)c(O)c1C(=O)Nc1cc(Cl)cc(Cl)c1 [Example 26]
inhibition in vivo at 15 mg/kg (Haemonchus contortus; [2]): 67% | inhibition in vivo at 15 mg/kg (Haemonchus contortus; [7]): 67% | effectiveness against the parasites, in words (Haemonchus contortus; sheep): too low to be useful | inhibition in vivo at 15 mg/kg (Fasciola hepatica; [5]): 100% | Tolerance (sheep; 40 mg./kg., Table VIII): Tol.

Cc1ccc(Cl)cc1NC(=O)c1c(C)c([N+](=O)[O-])cc(C(C)(C)C)c1O [Example 29]
inhibition in vivo at 15 mg/kg (Haemonchus contortus; [2]): 0% | inhibition in vivo at 15 mg/kg (Haemonchus contortus; [7]): 0% | effectiveness against the parasites, in words (Haemonchus contortus; sheep): ineffective

Cc1cccc(Cl)c1NC(=O)c1c(C)c([N+](=O)[O-])cc(C(C)(C)C)c1O [Example 30]
inhibition in vivo at 15 mg/kg (Haemonchus contortus; [2]): 0% | inhibition in vivo at 15 mg/kg (Haemonchus contortus; [7]): 0% | effectiveness against the parasites, in words (Haemonchus contortus; sheep): ineffective

Cc1c([N+](=O)[O-])cc(C(C)(C)C)c(O)c1C(=O)Nc1cc(Cl)c(Cl)cc1Cl [Example 36]
Toxicity (printed in the column Effectiveness at 15 mg/kg against Haemonchus) (sheep; 15 mg/kg, Table VI): Toxic

Cc1c([N+](=O)[O-])cc(C(C)(C)C)c(O)c1C(=O)Nc1c(Cl)cc(Cl)cc1Cl [Example 37]
Effectiveness at 15 mg/kg against Haemonchus (Haemonchus contortus; sheep, 15 mg/kg): 73%

Cc1cc(NC(=O)c2c(C)c([N+](=O)[O-])cc(C(C)(C)C)c2O)c(C)cc1Cl [Example 39]
Effectiveness at 15 mg/kg against Haemonchus (Haemonchus contortus; sheep, 15 mg/kg): 0%

Cc1c([N+](=O)[O-])cc(C(C)(C)C)c(O)c1C(=O)Nc1ccc(Br)cc1Br [Example 50]
inhibition in vivo at 5 mg/kg (Haemonchus contortus; [3]): 99.8% | inhibition in vivo at 5 mg/kg (Fasciola hepatica; [6]): 100%

Cc1c([N+](=O)[O-])cc(C(C)(C)C)c(O)c1C(=O)Nc1cccc(Cl)c1Cl [Example 60]
inhibition in vivo at 15 mg/kg (Haemonchus contortus; [7]): 14%

Cc1cc(Br)ccc1NC(=O)c1c(C)c([N+](=O)[O-])cc(C(C)(C)C)c1O [Example 64]
inhibition in vivo at 2 mg/kg (Haemonchus contortus; read-out: Haemonchus, percentage of microorganism killed, sheep, 2 mg/kg, Tables VIII-XI): 38% | inhibition in vivo at 5 mg/kg (Haemonchus contortus; [3]): 100% | inhibition in vivo at 5 mg/kg (Fasciola hepatica; [6]): 100% | Tolerance (sheep; 50 mg./kg., Tables VIII-X): Tox. | Tolerance (sheep; 50 mg./kg., Tables VIII-X, listed as 65): Sym.

Cc1cc(I)ccc1NC(=O)c1c(C)c([N+](=O)[O-])cc(C(C)(C)C)c1O [Example 66]
inhibition in vivo at 2 mg/kg (Haemonchus contortus; sheep, 2 mg/kg, Tables VIII-XI, read-out: Haemonchus, percentage of microorganism killed): 13% | inhibition in vivo at 5 mg/kg (Haemonchus contortus; [3]): 88% | inhibition in vivo at 5 mg/kg (Fasciola hepatica; [6]): 100% | inhibition in vivo at 15 mg/kg (Fasciola hepatica; [8]): 100% | Tolerance (sheep; 50 mg./kg., Tables VIII-X): Sym.

Cc1ccc(NC(=O)c2c(C)c([N+](=O)[O-])cc(C(C)(C)C)c2O)c(Cl)c1 [Example 71]
inhibition in vivo at 15 mg/kg (Haemonchus contortus; [7]): 62%

Cc1ccc(NC(=O)c2c(C)c([N+](=O)[O-])cc(C(C)(C)C)c2O)cc1Cl [Example 72]
inhibition in vivo at 5 mg/kg (Haemonchus contortus; [3]): 0% | inhibition in vivo at 15 mg/kg (Haemonchus contortus; [7]): 80%

From patent publication US3949075A, “Anti-microbial compounds of 2', 4' substituted anilides of substituted nitrosalicylic acid for quadruped animals” (Ferro Corporation, priority 1974, dated 1976)
